Source: publication PMC7332124, “Design, One Pot Synthesis and Molecular Docking Studies of Substituted-1H-Pyrido[2,1-b] Quinazolines as Apoptosis-Inducing Anticancer Agents” (Asian Pacific Journal of Cancer Prevention : APJCP, 2020)
Read-outs that look alike come from different tables or passages of the source.

Key:
A549 [1] = assay: Cell growth inhibition assay (MTT, day 0 subtracted); type: cell-based, human; conditions: 72 h, read-out: In vitro Growth Inhibitory Concentration (GI50)
Protocol: (§1) Various cancer cells were used to screen anticancer activity of newly synthesized compounds. Lung (A549 and NCI-H460), colon (HCT-15 and HT-29), prostate (DU-145) cancer cells maintained in RPMI-1640 media while normal lung fibroblasts cell line (HFL-1) were maintained in F-12 k medium supplemented with 10% fetal bovine serum (FBS) with 1% antibiotic-antimycotic solution (Sigma). Cells were maintained in 5% CO2 with 98% relative humidity at 37 °C in incubator. When 80-90% of confluency is reached, they were sub-cultured using 0.25% trypsin/1 mM EDTA solution for further passage. The compounds in this series were dissolved in DMSO (1 %) to prepare the stock solution of 10 mM. Further dilutions were made accordingly with respective media to obtain the required concentrations.
(§2) Briefly, the cells were seeded on to a 96-well plate in 100 µl of medium. Following 24 h MTT reagent was added in few wells and day 0 absorbance was analyzed, and then cells were treated with compounds and incubated for an additional 72 h. After the treatment, 100 µl of MTT (0.5 mg/ml) was added and incubated at 37 °C for 4 h. Then MTT reagent was suctioned, the insoluble formazan crystals were dissolved in DMSO and formazan product formed is measured at 570 nm wavelength. The day 0 absorbance was subtracted from the 72 h incubated plates and data were plotted as a percentage of untreated control (Dai et al., 2011).

DU-145 [2] = assay: as above; type: cell-based, human; conditions: 72 h, read-out: In vitro Growth Inhibitory Concentration (GI50)
Protocol: as §1, §2

[3] = test system: HFL-1 normal lung fibroblasts; assay: as above; type: cell-based, human; conditions: read-out: In vitro Growth Inhibitory Concentration (GI50)
Protocol: as §1, §2

HT-29 [4] = assay: as above; type: cell-based, human; conditions: 72 h, read-out: In vitro Growth Inhibitory Concentration (GI50)
Protocol: as §1, §2

NCI-H460 [5] = assay: as above; type: cell-based, human; conditions: 72 h, read-out: In vitro Growth Inhibitory Concentration (GI50)
Protocol: as §1, §2

HCT-15 [6] = assay: as above; type: cell-based, human; conditions: 72 h, read-out: In vitro Growth Inhibitory Concentration (GI50)
Protocol: as §1, §2

A549 [7] = assay: MTT cytotoxicity assay; type: cell-based, human; conditions: A549 adenocarcinoma (lung), MTT, 72 h, read-out: In vitro Inhibitory Concentration (IC50)
Protocol: as §1
(§3) MTT assay measures the reduction of MTT (3-(4,5-dimethylthiazol- 2-yl)-2,5-diphenyl tetrazolium bromide) by mitochondrial succinate dehydrogenase enzyme to insoluble formazan crystals. Since reduction of MTT occurs only in metabolically active cells, the level of activity is the measure of the viability of the cells.(Pordeli et al., 2017). Briefly, cells were plated in 96-well plates at a density of 3,000 to 6,000 cells per well in 100 µl of complete medium and allowed to grow overnight. Then the cells were treated with different concentrations of the synthesized compounds and incubated for 72 h. After the treatment, 100 µl of MTT (0.5 mg/ml) was added and incubated at 37 °C for 4 h. Then MTT reagent was aspirated and formazan crystals formed were dissolved by the addition of 200 µL of DMSO for 20 min at 37 °C. The formazan product quantity was measured by using a spectrophotometric microtiter plate reader (Spectra Max, M4 Molecular devices, USA) at 570 nm wavelength(Nekkanti et al., 2017).

DU-145 [8] = assay: MTT cytotoxicity assay; type: cell-based, human; conditions: DU-145 prostate cancer, 72 h, read-out: In vitro Inhibitory Concentration (IC50)
Protocol: as §1, §3

[9] = test system: HFL-1 normal lung fibroblasts; assay: MTT cytotoxicity assay; type: cell-based, human; conditions: read-out: In vitro Inhibitory Concentration (IC50)
Protocol: as §1, §3

HT-29 [10] = assay: MTT cytotoxicity assay; type: cell-based, human; conditions: HT-29 colorectal cancer, 72 h, read-out: In vitro Inhibitory Concentration (IC50)
Protocol: as §1, §3

NCI-H460 [11] = assay: MTT cytotoxicity assay; type: cell-based, human; conditions: NCI-H460 lung carcinoma, 72 h, read-out: In vitro Inhibitory Concentration (IC50)
Protocol: as §1, §3

HCT-15 [12] = assay: MTT cytotoxicity assay; type: cell-based, human; conditions: HCT-15 colon cancer, 72 h, read-out: In vitro Inhibitory Concentration (IC50)
Protocol: as §1, §3

Compound | GI50 (A549 [1]) | GI50 (DU-145 [2]) | GI50 (HT-29 [4]) | GI50 (NCI-H460 [5]) | GI50 (HCT-15 [6]) | GI50 (A549 [1]; Homo sapiens) | GI50 (DU-145 [2]; Homo sapiens) | GI50 (HT-29 [4]; Homo sapiens) | GI50 (NCI-H460 [5]; Homo sapiens) | GI50 (HCT-15 [6]; Homo sapiens) | melting point | GI50 ([3]; 72 h) | IC50 (A549 [7]) | GI50 ([3]; Homo sapiens, HFL1, 72 h) | IC50 (A549 [7]; Homo sapiens) | IC50 (DU-145 [8]; Homo sapiens) | IC50 ([9]; Homo sapiens, HFL1, 72 h) | IC50 (HT-29 [10]; Homo sapiens) | IC50 (NCI-H460 [11]; Homo sapiens) | IC50 (HCT-15 [12]; Homo sapiens) | other results
11-(4-trimethoxyphenyl)-2, 3, 4, 11-tetrahydro-1H-pyrido[2,1-b] quinazoline [Compound 4h] | > 30 µM | > 30 µM | > 30 µM | > 30 µM | > 30 µM |  |  |  |  |  |  | > 30 µM | > 30 µM |  |  |  |  |  |  |  | IC50 (DU-145 [8]): > 30 µM; IC50 ([9]; 72 h): > 30 µM; IC50 (HT-29 [10]): > 30 µM; IC50 (NCI-H460 [11]): > 30 µM; IC50 (HCT-15 [12]): > 30 µM
C1=CC2=NC3=C(CCCC3)C(c3ccccc3)N2C=C1 (stereo not drawn) [Compound 4a, 11-Phenyl-2,3,4, 11-tetrahydro-1H-pyrido [2,1-b] quinazoline] |  |  |  |  |  | > 30 µM | > 30 µM | > 30 µM | > 30 µM | > 30 µM | 154 to 156 °C |  |  | > 30 µM | > 30 µM | > 30 µM | > 30 µM | > 30 µM | > 30 µM | > 30 µM | 
Clc1ccc(C2C3=C(CCCC3)N=C3C=CC=CN32)cc1 (stereo not drawn) [Compound 4b, 11-(4-Chlorophenyl)-2,3,4, 11-tetrahydro-IH-pyrido [2,1-b] quinazoline] | > 30 µM | > 30 µM | > 30 µM | > 30 µM | > 30 µM |  |  |  |  |  |  | > 30 µM | > 30 µM |  |  |  |  |  |  |  | IC50 (DU-145 [8]): > 30 µM; IC50 ([9]; 72 h): > 30 µM; IC50 (HT-29 [10]): > 30 µM; IC50 (NCI-H460 [11]): > 30 µM; IC50 (HCT-15 [12]): > 30 µM
O=[N+]([O-])c1ccc(C2C3=C(CCCC3)N=C3C=CC=CN32)cc1 (stereo not drawn) [Compound 4c, 11-(4-Nitrophenyl)-2,3,4, 11-tetrahydro-1H-pyrido[2,1-b]quinazoline] |  |  |  |  |  | > 30 µM | > 30 µM | > 30 µM | > 30 µM | > 30 µM | 150 to 151 °C |  |  | > 30 µM | > 30 µM | > 30 µM | > 30 µM | > 30 µM | > 30 µM | > 30 µM | 
COc1ccc(C2C3=C(CCCC3)N=C3C=CC=CN32)cc1 (stereo not drawn) [Compound 4d, 11-(4-Methoxyphenyl)-2,3,4, 11-tetrahydro-1H-pyrido[2,1-b]quinazoline] |  |  |  |  |  | > 30 µM | > 30 µM | > 30 µM | > 30 µM | > 30 µM | 88 to 89 °C |  |  | > 30 µM | > 30 µM | > 30 µM | > 30 µM | > 30 µM | > 30 µM | > 30 µM | 

Further lines, with some results ahead:

GI50 (A549 [1]) | GI50 (DU-145 [2]) | GI50 (HT-29 [4]) | GI50 (NCI-H460 [5]) | GI50 (HCT-15 [6]) | GI50 (A549 [1]; Homo sapiens) | GI50 (DU-145 [2]; Homo sapiens) | GI50 (HT-29 [4]; Homo sapiens) | GI50 (NCI-H460 [5]; Homo sapiens) | GI50 (HCT-15 [6]; Homo sapiens) | melting point | Compound | GI50 ([3]; 72 h) | IC50 (A549 [7]) | GI50 ([3]; Homo sapiens, HFL1, 72 h) | IC50 (A549 [7]; Homo sapiens) | IC50 (DU-145 [8]; Homo sapiens) | IC50 ([9]; Homo sapiens, HFL1, 72 h) | IC50 (HT-29 [10]; Homo sapiens) | IC50 (NCI-H460 [11]; Homo sapiens) | IC50 (HCT-15 [12]; Homo sapiens) | other results
29.5 ± 0.79 µM | 17.7 ± 0.13 µM | 15.8 ± 0.97 µM | 20.8 ± 1.82 µM | 23.44 ± 0.2 µM |  |  |  |  |  |  | Cc1ccc(C2C3=C(CCCC3)N=C3C=CC=CN32)cc1 (stereo not drawn) [Compound 4e] | 68.6 ± 3.2 µM | 43.1 ± 2.43 µM |  |  |  |  |  |  |  | IC50 (DU-145 [8]): 23.2 ± 0.25 µM; IC50 ([9]; 72 h): 85 ± 3.8 µM; IC50 (HT-29 [10]): 39.5 ± 1.4 µM; IC50 (NCI-H460 [11]): 43.2 ± 2.58 µM; IC50 (HCT-15 [12]): 40.9 ± 0.55 µM
 |  |  |  |  | 8.64 ± 0.4 µM | 11.3 ± 0.34 µM | 11.43 ± 0.06 µM | 9.62 ± 0.41 µM | 12.9 ± 0.73 µM | 131 to 132 °C | ClC1=CN2C(=NC3=C(CCCC3)C2c2ccc(Cl)cc2)C=C1 (stereo not drawn) [Compound 4f, 8-Chloro-11-(4-chlorophenyl)-2,3,4, 11-tetrahydro-1H-pyrido [2,1-b] quinazoline] |  |  | 11.6 ± 0.17 µM | 12.8 ± 1.5 µM | 16.08 ± 0.14 µM | 15.2 ± 0.3 µM | 15.4 ± 0.11 µM | 12.6 ± 0.35 µM | 19.3 ± 1.16 µM | 
 |  |  |  |  | 9.23 ± 0.93 µM | 7.37 ± 2.5 µM | 20.8 ± 3.74 µM | 17.5 ± 2.05 µM | 10 ± 0.97 µM | 88 to 93 °C | Fc1ccc(C2C3=C(CCCC3)N=C3C=CC(Cl)=CN32)cc1 (stereo not drawn) [Compound 4g, 8-chloro-11-(4-fluorophenyl)-2,3,4,11-tetrahydro-1H-pyrido[2,1-b]quinazoline] |  |  | 41.7 ± 0.98 µM | 25.5 ± 3.98 µM | 32.9 ± 3.77 µM | 63.1 ± 1.79 µM | 41.3 ± 1.43 µM | 41.5 ± 1.27 µM | 28.6 ± 1.96 µM | 
 |  |  |  |  | 5.79 ± 0.14 µM | 8.1 ± 0.1 µM | 4.4 ± 0.2 µM | 7.1 ± 0.19 µM | 7.81 ± 0.65 µM | 180 to 182 °C | C1=CC2=NC3=C(CCCC3)C(c3c[nH]c4ccccc34)N2C=C1 (stereo not drawn) [Compound 4j, 11-(1H-indol-3-yl)-2,3,4, 11-tetrahydro-1H-pyrido [2,1-b]quinazoline] |  |  | 7.67 ± 0.22 µM | 8.98 ± 0.32 µM | 12.6 ± 0.23 µM | 9.31 ± 0.32 µM | 7.25 ± 0.38 µM | 9.27 ± 0.54 µM | 10.9 ± 0.4 µM | 
